Experimental data published in patent US20240376076A1, “INHIBITORS TARGETING UBIQUITIN SPECIFIC PROTEASE 7 (USP7)” (Dana-Farber Cancer Institute, Inc., priority 2021, published 2024).

Columns and labels:
[1] = mouse liver microsomal stability (Microsome Assay Protocol); assay type: in vitro ADME; conditions: pH 7.4; mouse liver microsomes, NADPH, 37° C.; read-out: MLM t1/2, min
Experimental: ND refers to not disclosed.
• 1. Buffer A: 1.0 L of 0.1 M monobasic Potassium Phosphate buffer containing 1.0 mM EDTA Buffer B: 1.0 L of 0.1 M Dibasic Potassium Phosphate buffer containing 1.0 mM EDTA • Buffer C: 0.1 M Potassium Phosphate buffer, 1.0 mM EDTA, pH 7.4 by titrating 700 mL of buffer B with buffer A while monitoring with a pH meter. • 2. Reference compound (Ketanserin) and test compounds spiking solution: • 500 μM spiking solution: added 10 μL of 10 mM DMSO stock solution into 190 μL ACN. • 1.5 μM spiking solution in microsomes (0.75 mg/mL): added 1.5 μL of 500 μM spiking solution and 18.75 μL of 20 mg/mL liver microsomes into 479.75 μL of Buffer C on ice. • 3. Prepared NADPH stock solution (6 mM) by dissolving NADPH into buffer C. Dispensed 30 μL of 1.5 μM spiking solution containing 0.75 mg/mL microsomes solution to the assay plates designated for different time points (0-, 5-, 15-, 30-, 45-min) on ice. For 0-min, added 135 μL of ACN containing IS to the wells of 0-min plate and then added 15 μL of NADPH stock solution (6 mM). Pre-incubated all other plates at 37° C. for 5 minutes. Added 15 μL of NADPH stock solution (6 mM) to the plates to start the reaction and timing. At 5-min, 15-min, 30-min, and 45-min, added 135 μL of ACN containing IS to the wells of corresponding plates, respectively, to stop the reaction. After quenching, shook the plates at the vibrator (IKA, MTS 2/4) for 10 min (600 rpm/min) and then centrifuged at 5594 g for 15 min (Thermo Multifuge×3R). Transferred 50 μL of the supernatant from each well into a 96-well sample plate containing 50 μL of ultra pure water (Millipore, ZMQS50F01) for LC/MS analysis.

[2] = molecular target: T1, USP7, Active human recombinant protein (Homo sapiens, UniProt Q93009); experiment: USP7 assay (Ubiquitin-Rhodamine 110 enzymatic assay); assay type: biochemical; conditions: read-out: IC50
T1 construct: purchased CP Lot; 20200225001
Summary of the method: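 Kinetic 20-min fluorescence read (485/535 nm) of ubiquitin-rhodamine 110 (190 nM final) cleavage by 0.05 nM USP7 gave slopes. Compounds, 10 concentrations in 3-fold steps, had 15 min RT preincubation with enzyme first. Inhibition relative to max (enzyme+substrate) and min (substrate only) signals, fitted to IC50.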

T1 sequence (Q93009 whole entry): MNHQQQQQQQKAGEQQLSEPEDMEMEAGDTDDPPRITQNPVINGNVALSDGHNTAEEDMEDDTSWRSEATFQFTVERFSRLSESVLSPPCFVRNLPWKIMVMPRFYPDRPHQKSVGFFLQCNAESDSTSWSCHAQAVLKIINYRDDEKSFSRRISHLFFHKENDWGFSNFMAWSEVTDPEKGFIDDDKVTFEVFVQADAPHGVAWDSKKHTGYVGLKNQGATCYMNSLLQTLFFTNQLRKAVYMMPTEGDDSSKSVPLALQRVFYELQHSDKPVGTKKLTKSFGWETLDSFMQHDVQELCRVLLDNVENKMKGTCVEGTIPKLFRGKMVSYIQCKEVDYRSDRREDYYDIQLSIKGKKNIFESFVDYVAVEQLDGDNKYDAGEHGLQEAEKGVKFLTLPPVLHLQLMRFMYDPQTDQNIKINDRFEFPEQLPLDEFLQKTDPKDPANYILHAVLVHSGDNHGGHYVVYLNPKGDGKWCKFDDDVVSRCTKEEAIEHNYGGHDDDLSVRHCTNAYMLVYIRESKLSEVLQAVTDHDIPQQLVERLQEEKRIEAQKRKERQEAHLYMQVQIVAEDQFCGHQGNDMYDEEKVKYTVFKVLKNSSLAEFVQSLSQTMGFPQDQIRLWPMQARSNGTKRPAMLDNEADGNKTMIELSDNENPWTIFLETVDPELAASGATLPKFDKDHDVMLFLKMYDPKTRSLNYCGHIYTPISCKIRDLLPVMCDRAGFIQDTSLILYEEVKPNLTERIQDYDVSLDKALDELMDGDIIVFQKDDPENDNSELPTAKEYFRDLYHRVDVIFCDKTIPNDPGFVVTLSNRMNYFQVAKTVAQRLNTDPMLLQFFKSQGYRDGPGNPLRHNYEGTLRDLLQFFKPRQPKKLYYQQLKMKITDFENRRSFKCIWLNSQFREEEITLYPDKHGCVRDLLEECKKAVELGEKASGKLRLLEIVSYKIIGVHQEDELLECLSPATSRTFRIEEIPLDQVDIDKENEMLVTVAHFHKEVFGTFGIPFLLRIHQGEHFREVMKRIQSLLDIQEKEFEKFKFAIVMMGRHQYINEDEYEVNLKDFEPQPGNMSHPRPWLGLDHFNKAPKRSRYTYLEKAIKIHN

| Structure (SMILES) | half-life at 1 µM [1] [min] | IC50 [2] [µM] |
| --- | --- | --- |
| CN(C)CCCOc1ccc2c(=O)n(CC3(O)CCN(C(=O)[C@H](CCCNC(=O)c4ccc5c(Cl)c(C#N)cnc5c4)Cc4ccccc4)CC3)cnc2c1 | 1.67 | < 0.02 |
| CN(C)CCCOc1ccc2c(=O)n(CC3(O)CCN(C(=O)[C@H](CCCNC(=O)c4ccc5c(Cl)c(C6CC6)cnc5c4)Cc4ccccc4)CC3)cnc2c1 | 31.9 | < 0.02 |
| CN(C)CCCOc1ccc2c(=O)n(CC3(O)CCN(C(=O)[C@@H](CCCNC(=O)c4ccc5c(Cl)c(C(N)=O)cnc5c4)Cc4ccccc4)CC3)cnc2c1 | 30.2 | < 0.02 |
| CN(C)CCCOc1ccc2c(=O)n(CC3(O)CCN(C(=O)[C@H](CCCNC(=O)c4ccc5c(Cl)c(C(=O)N(C)C)cnc5c4)Cc4ccccc4)CC3)cnc2c1 | 33.8 | 0.1 to 1 |
| CN(C)CCCOc1ccc2c(=O)n(CC3(O)CCN(C(=O)C(CCNC(=O)c4ccc5c(Cl)c(C(N)=O)cnc5c4)Cc4ccccc4)CC3)cnc2c1 (stereo not drawn) | 28.2 | < 0.02 |
| CN(C)CCCOc1ccc2c(=O)n(CC3(O)CCN(C(=O)C(Cc4ccccc4)NCCNC(=O)c4ccc5c(Cl)c(C(N)=O)cnc5c4)CC3)cnc2c1 (stereo not drawn) | 65.5 | < 0.02 |
| CN(C)CCCOc1cc2ncn(CC3(O)CCN(C(=O)[C@@H](CCCNC(=O)c4ccc5c(Cl)cc(C6CC6)nc5c4)Cc4ccccc4)CC3)c(=O)c2cc1F | 22.1 | < 0.02 |
| CN(C)CCCOc1ccc2c(=O)n(CC3(O)CCN(C(=O)C(Cn4ccc(F)n4)N(C)CCNC(=O)c4ccc5c(Cl)c(C(N)=O)cnc5c4)CC3)cnc2c1 (stereo not drawn) | 106 | 0.02 to 0.1 |
| CN(C)CCCOc1ccc2c(=O)n(CC3(O)CCN(C(=O)C(CCCNC(=O)c4ccc5c(Cl)c(C(=O)NC6CC6)cnc5c4)Cn4ccc(F)n4)CC3)cnc2c1 (stereo not drawn) | 152 | < 0.02 |
| Nc1ccc(-n2ncc3c(=O)n(CC4(O)CCN(C(=O)C(CCCNC(=O)c5ccc6c(Cl)ccnc6c5)Cc5ccccc5)CC4)cnc32)cc1 (stereo not drawn) [Compound 7, N-(5-(4-((1-(4-aminophenyl)-4-oxo-1,4-dihydro-5H-pyrazolo[3,4-d]pyrimidin-5-yl)methyl)-4-hydroxypiperidin-1-yl)-4-benzyl-5-oxopentyl)-4-chloroquinoline-7-carboxamide] | 4.3 | < 0.02 |
| Cn1nc2c(=O)n(CC3(O)CCN(C(=O)C(CCCNC(=O)c4ccc5c(Cl)ccnc5c4)Cc4ccccc4)CC3)cnc2c1-c1cccc(C#N)c1 (stereo not drawn) [Compound 10, N-(4-benzyl-5-(4-((3-(3-cyanophenyl)-2-methyl-7-oxo-2,7-dihydro-6H-pyrazolo[4,3-d]pyrimidin-6-yl)methyl)-4-hydroxypiperidin-1-yl)-5-oxopentyl)-4-chloroquinoline-7-carboxamide] | 1.5 | 0.02 to 0.1 |

Now from value to molecule:

| half-life at 1 µM [1] [min] | IC50 [2] [µM] | Structure (SMILES) |
| --- | --- | --- |
| 22.7 | 0.1 to 1 | CN1CCN(CCC(=O)Nc2ccc3c(=O)n(CC4(O)CCN(C(=O)C(CCCNC(=O)c5ccc6c(Cl)cc(-c7ccc(F)cc7)nc6c5)Cc5ccccc5)CC4)cnc3c2)CC1 (stereo not drawn) |
| 2.31 | > 1 | O=C(CN1CCN(C(=O)c2ccc3c(Cl)c4c(nc3c2)CCCC4)CC1)N1CCC(O)(Cn2cnc3cc(Cl)ccc3c2=O)CC1 |
| 44 | 0.1 to 1 | CN(C)CCCOc1ccc2c(=O)n(CC3(O)CCN(C(=O)[C@H](CCCNC(=O)c4cnc5c(Cl)ccnc5c4)Cc4ccccc4)CC3)cnc2c1 |
| 57.6 | < 0.02 | CN(C)CCCOc1ccc2c(=O)n(CC3(O)CCN(C(=O)C(CCCNC(=O)c4ccc5c(Cl)c(CO)cnc5c4)Cc4ccccc4)CC3)cnc2c1 (stereo not drawn) |
| 62.4 | < 0.02 | CN(C)CCCOc1ccc2c(=O)n(CC3(O)CCN(C(=O)[C@@H](CCCNC(=O)c4ccc5c(Cl)c(C(=O)NC6CC6)cnc5c4)Cc4ccccc4)CC3)cnc2c1 |
| 10.2 | 0.1 to 1 | CN(C)CCCOc1ccc2c(=O)n(CC3(O)CCN(C(=O)[C@H](CCCNC(=O)c4ccc5c(Cl)c6c(nc5c4)CCNC6=O)Cc4ccccc4)CC3)cnc2c1 |
| 14.4 | 0.02 to 0.1 | CN(C)CCCOc1ccc2c(=O)n(CC3(O)CCN(C(=O)C(CCCNC(=O)c4ccc5c(Cl)c6c(nc5c4)CCN(C)C6=O)Cc4ccccc4)CC3)cnc2c1 (stereo not drawn) |
| 11.3 | < 0.02 | CN(C)CCCOc1ccc2c(=O)n(CC3(O)CCN(C(=O)C(CCCNC(=O)c4ccc5c(Cl)c6c(nc5c4)CN(C)C6=O)Cc4ccccc4)CC3)cnc2c1 (stereo not drawn) |
| 16.3 | > 1 | CN(C)CCCOc1ccc2c(=O)n(CC3(O)CCN(C(=O)C(CCCNC(=O)c4ccc5c(Cl)c6c(nc5c4)C(C)(C)NC6=O)Cc4ccccc4)CC3)cnc2c1 (stereo not drawn) |
| 36.4 | < 0.02 | CN(C)CCCOc1ccc2c(=O)n(CC3(O)CCN(C(=O)C(Cc4ccccc4)N(C)CCNC(=O)c4ccc5c(Cl)c(C(N)=O)cnc5c4)CC3)cnc2c1 (stereo not drawn) |
| 18.6 | < 0.02 | CN(C)CCCNc1cc2ncn(CC3(O)CCN(C(=O)[C@@H](CCCNC(=O)c4ccc5c(Cl)cc(C6CC6)nc5c4)Cc4ccccc4)CC3)c(=O)c2cc1F |
| 1 | 0.02 to 0.1 | O=C(NCCCC(Cc1ccccc1)C(=O)N1CCC(O)(Cn2cnc3c(cnn3-c3ccc(F)cc3)c2=O)CC1)c1ccc2c(Cl)ccnc2c1 (stereo not drawn) [Compound 6, N-(4-benzyl-5-(4-((1-(4-fluorophenyl)-4-oxo-1,4-dihydro-5H-pyrazolo[3,4-d]pyrimidin-5-yl)methyl)-4-hydroxypiperidin-1-yl)-5-oxopentyl)-4-chloroquinoline-7-carboxamide] |
| 12.1 | 0.02 to 0.1 | O=C(NCCCC(Cc1ccccc1)C(=O)N1CCC(O)(Cn2cnc(NCCN3CCCC3)cc2=O)CC1)c1ccc2c(Cl)ccnc2c1 (stereo not drawn) [Compound 11, N-(4-benzyl-5-(4-hydroxy-4-((6-oxo-4-(2-(pyrrolidin-1-yl)ethylamino)pyrimidin-1(6H)-yl)methyl)piperidin-1-yl)-5-oxopentyl)-4-chloroquinoline-7-carboxamide] |
| 21.2 | 0.02 to 0.1 | CN1CCN(CCC(=O)Nc2ccc3c(=O)n(CC4(O)CCN(C(=O)C(CCCNC(=O)c5ccc6c(Cl)cc(-c7cnn(CC(F)(F)F)c7)nc6c5)Cc5ccccc5)CC4)cnc3c2)CC1 (stereo not drawn) [Compound 18, N-(4-benzyl-5-(4-hydroxy-4-((7-(3-(4-methylpiperazin-1-yl)propanamido)-4-oxoquinazolin-3(4H)-yl)methyl)piperidin-1-yl)-5-oxopentyl)-4-chloro-2-(1-(2,2,2-trifluoroethyl)-1H-pyrazol-4-yl)quinoline-7-carboxamide] |
| 18.5 | > 1 | CN1CCN(CCC(=O)Nc2ccc3c(=O)n(CC4(O)CCN(C(=O)C(CCCNC(=O)c5ccc6c(Cl)cc(C7(F)CC7)nc6c5)Cc5ccccc5)CC4)cnc3c2)CC1 (stereo not drawn) [Compound 21, N-(4-benzyl-5-(4-hydroxy-4-((7-(3-(4-methylpiperazin-1-yl)propanamido)-4-oxoquinazolin-3(4H)-yl)methyl)piperidin-1-yl)-5-oxopentyl)-4-chloro-2-(1-fluorocyclopropyl)quinoline-7-carboxamide] |
| 20 | > 1 | CN1CCN(CCn2cc3ncn(CC4(O)CCN(C(=O)C(CCCNC(=O)c5ccc6c(Cl)ccnc6c5)Cc5ccccc5)CC4)c(=O)c3n2)CC1 (stereo not drawn) [Compound 27] |
